A short description of series [1]: Comparative equilibrium solubility study of micronized and non-micronized Compound 1. In kind it is physicochemical. Conditions: for Concentration of Compound 1 in 0.1N HCl + 0.5% SLS: pH 1; for Concentration of Compound 1 in PBS: pH 7.4. How it is done:
Objective: The purpose of this study was to evaluate the solubility of micronized and non-micronized Compound 1. The solubility study was conducted in two representative media in pH 1 (0.1 N HCl with 0.5% sodium lauryl sulfate) and in pH 7.4 (0.1M phosphate buffered saline). The experiment further compared the initial rate of dissolution and equilibrium solubilities of micronized and non-micronized Compound 1 over a period of time.
Solubility measurement procedure comprised the steps of: 1) weighing and mixing approximately 100 mg of micronized Compound 1 and 100 mL of 0.1N HCl with 0.5% SLS into amber jar 1; 2) weighing and mixing approximately 100 mg of micronized Compound 1 and 100 mL of PBS into amber jar 2; 3) weighing and mixing approximately 100 mg of non-micronized Compound 1 and 100 mL of 0.1N HCl with 0.5% SLS into amber jar 3; 4) weighing and mixing approximately 100 mg of non-micronized Compound 1 and 100 mL of PBS into amber jar 4; 5) mixing all samples in their respective amber jars using a multi purpose rotator for 2 hours; 4) sampling at 5 minutes, 10 minutes, 30 minutes, 60 minutes, 90 minutes, 120 minutes; 5) filtering the samples and 6) analyzing the filtrates using HPLC. For each time point, 10 mL of sample was drawn using a 10 mL syringe with a needle attached filter and using a syringe-top 0.45 μm PTFE syringe filter. The first 9 mL of the samples collected were put back into the original amber jar and then remaining 1 mL was transferred to HPLC vial for analysis.

Series [2] is described as follows: Quantitative whole body autoradiography, Sprague Dawley rats. It counts as in vivo. The conditions noted are these: 1 hr, 50 mg/kg single oral. On the procedure: (§1) Two studies were performed to evaluate the concentrations of Compound 1/metabolites in various tissues, including the eyes, following a single dose administration of radiolabeled Compound 1 (^14C-3-[5-(2-fluoro-phenyl)-[1,2,4]oxadiazol-3-yl]benzoic acid) to Sprague Dawley and Long Evans rats.
Sprague Dawley rats: As part of a quantitative whole body autoradiography (QWBA) study, 4 male and 4 female Sprague Dawley rats (albino) obtained from Charles River were administered a single oral gavage dose of 50 mg/kg ^14C-3-[5-(2-fluoro-phenyl)-[1,2,4]oxadiazol-3-yl]benzoic acid.
Animals were individually housed and certified rodent diet and water were provided ad libitum. Animals were acclimated for 8 days prior to dose administration. Environmental controls for the animal room were set to maintain a temperature of 18 to 26° C., a relative humidity of 50±20%, and a 12-hour light/12-hour dark cycle. The 12-hour dark cycle may have been interrupted to accommodate study procedures. Animals were fasted overnight through 4 hours postdose on the day of dosing. At dosing, the animals weighed 204 to 260 g and were approximately 9 to 11 weeks of age. […] The concentrations of ^14C-3-[5-(2-fluoro-phenyl)-[1,2,4]oxadiazol-3-yl]benzoic acid in the eye and related tissues are shown in the following table.

A short description of series [3]: Quantitative whole body autoradiography, Long Evans rats. In kind it is in vivo. The conditions noted are these: 50 mg/kg single oral. On the procedure: as §1
Long Evans rats: In a quantitative whole body autoradiography (QWBA) study, 8 male Long Evans rats (partially pigmented) obtained from Harlan were administered a single oral gavage dose of 50 mg/kg ^14C-Compound 1.
Animals were individually housed and certified rodent diet and water were provided ad libitum. Animals were acclimated for 3 days prior to dose administration. Environmental controls for the animal room were set to maintain a temperature of 18 to 26° C., a relative humidity of 50±20%, and a 12-hour light/12-hour dark cycle. As necessary, the 12-hour dark cycle was interrupted to accommodate study procedures. Animals were fasted overnight through 4 hours postdose on the day of dosing. At dosing, the animals weighed 160 to 178 g and were approximately 7 weeks of age. One animal/time point was sacrificed via exsanguination (cardiac puncture) under isoflurane anesthesia at 0.5, 1, 2, 4, 8, 24, 72, and 168 hours postdose.

Turning to `O=C(O)c1cccc(-c2noc(-c3ccccc3F)n2)c1` [Micronized Compound 1], the “Concentration of Compound 1 in 0.1N HCl + 0.5% SLS” value in series [1] (5 minutes) amounted to 6.85 µg/mL; in series [1] (10 minutes), 6.81 µg/mL; in series [1] (30 minutes) it was 6.83 µg/mL; in series [1] (60 minutes), 7.04 µg/mL; in series [1] (90 minutes) it was 6.88 µg/mL; in series [1] (120 minutes), 7.18 µg/mL. Further, the “Concentration of Compound 1 in PBS” value in series [1] (5 minutes) was 189.13 µg/mL; in series [1] (10 minutes), 191.45 µg/mL; in series [1] (30 minutes), 197.59 µg/mL; in series [1] (60 minutes), 199.95 µg/mL; in series [1] (90 minutes), 200.29 µg/mL; in series [1] (120 minutes) it was 203.08 µg/mL.

As to `O=C(O)c1cccc(-c2noc(-c3ccccc3F)n2)c1` [Non-Micronized Compound 1], the “Concentration of Compound 1 in 0.1N HCl + 0.5% SLS” value was determined as 6.24 µg/mL in series [1] (5 minutes); 6.38 µg/mL in series [1] (10 minutes); 6.87 µg/mL in series [1] (30 minutes); 6.99 µg/mL in series [1] (60 minutes); 6.97 µg/mL in series [1] (90 minutes); 7.04 µg/mL in series [1] (120 minutes). In addition, the “Concentration of Compound 1 in PBS” value was found to be 141.89 µg/mL in series [1] (5 minutes); 152.59 µg/mL in series [1] (10 minutes); 176.92 µg/mL in series [1] (30 minutes); 185.18 µg/mL in series [1] (60 minutes); 194.06 µg/mL in series [1] (90 minutes); 196.54 µg/mL in series [1] (120 minutes).

“^14C-3-[5-(2-fluoro-phenyl)-[1,2,4]oxadiazol-3-yl]benzoic acid”: the Concentrations of radioactivity in series [2] (Female, Exorbital lacrimal gland) was determined as 10.3 µg/g; in series [2] (Female, Harderian gland), 18.7 µg/g; in series [2] (Female, Intra-orbital lacrimal gland) it was 10.2 µg/g; in series [2] (Female, matrix cell blank (first line)), 1.41 µg/g; in series [2] (Male, Exorbital lacrimal gland) it was 21.1 µg/g; in series [2] (Male, Eye), 3.39 µg/g. The Concentrations of radioactivity in series [2] (Male, Harderian gland) stood at 21.6 µg/g; in series [2] (Male, Intra-orbital lacrimal gland), 21.8 µg/g; in series [3] (Exorbital lacrimal gland, 0.5 hr), 28.0 µg/g; in series [3] (Exorbital lacrimal gland, 1 hr) it was 7.59 µg/g; in series [3] (Exorbital lacrimal gland, 2 hr) it was 22.4 µg/g; in series [3] (Exorbital lacrimal gland, 4 hr), 10.2 µg/g. The Concentrations of radioactivity in series [3] (Exorbital lacrimal gland, 8 hr) was 8.09 µg/g; in series [3] (Exorbital lacrimal gland, 24 hr), “BLQ (BLQ = below the limit of quantitation (<0.457 μg equivalents ^14C-3-[5-(2-fluoro-phenyl)-[1,2,4]oxadiazol-3-yl]benzoic acid))”; in series [3] (Exorbital lacrimal gland, 72 hr), “BLQ (BLQ = below the limit of quantitation (<0.457 μg equivalents ^14C-3-[5-(2-fluoro-phenyl)-[1,2,4]oxadiazol-3-yl]benzoic acid))”; in series [3] (Eye (lens), 0.5 hr), “BLQ (BLQ = below the limit of quantitation (<0.457 μg equivalents ^14C-3-[5-(2-fluoro-phenyl)-[1,2,4]oxadiazol-3-yl]benzoic acid))”; in series [3] (Eye (lens), 1 hr), “BLQ (BLQ = below the limit of quantitation (<0.457 μg equivalents ^14C-3-[5-(2-fluoro-phenyl)-[1,2,4]oxadiazol-3-yl]benzoic acid))”; in series [3] (Eye (lens), 2 hr), “BLQ (BLQ = below the limit of quantitation (<0.457 μg equivalents ^14C-3-[5-(2-fluoro-phenyl)-[1,2,4]oxadiazol-3-yl]benzoic acid))”. The Concentrations of radioactivity entry in series [3] (Eye (lens), 4 hr) was “BLQ (BLQ = below the limit of quantitation (<0.457 μg equivalents ^14C-3-[5-(2-fluoro-phenyl)-[1,2,4]oxadiazol-3-yl]benzoic acid))”; in series [3] (Eye (lens), 8 hr), “BLQ (BLQ = below the limit of quantitation (<0.457 μg equivalents ^14C-3-[5-(2-fluoro-phenyl)-[1,2,4]oxadiazol-3-yl]benzoic acid))”; in series [3] (Eye (lens), 24 hr), “BLQ (BLQ = below the limit of quantitation (<0.457 μg equivalents ^14C-3-[5-(2-fluoro-phenyl)-[1,2,4]oxadiazol-3-yl]benzoic acid))”; in series [3] (Eye, 0.5 hr) it was 4.59 µg/g; in series [3] (Eye, 1 hr) it was 1.78 µg/g; in series [3] (Eye, 2 hr) it was 3.62 µg/g. Moreover, the Concentrations of radioactivity in series [3] (Eye, 4 hr) is 2.69 µg/g; in series [3] (Eye, 8 hr) it was 2.08 µg/g; in series [3] (Eye, 24 hr), “BLQ (BLQ = below the limit of quantitation (<0.457 μg equivalents ^14C-3-[5-(2-fluoro-phenyl)-[1,2,4]oxadiazol-3-yl]benzoic acid))”; in series [3] (Hardenian gland, 0.5 hr), 46.8 µg/g; in series [3] (Hardenian gland, 1 hr) it was 16.0 µg/g; in series [3] (Hardenian gland, 2 hr), 38.2 µg/g. The Concentrations of radioactivity is 18.1 µg/g in series [3] (Hardenian gland, 4 hr); 13.0 µg/g in series [3] (Hardenian gland, 8 hr); 1.59 µg/g in series [3] (Hardenian gland, 24 hr); 28.8 µg/g in series [3] (Intra-orbital lacrimal gland, 0.5 hr); 10.3 µg/g in series [3] (Intra-orbital lacrimal gland, 1 hr); 25.2 µg/g in series [3] (Intra-orbital lacrimal gland, 2 hr). Moreover, the Concentrations of radioactivity is 11.7 µg/g in series [3] (Intra-orbital lacrimal gland, 4 hr); 10.3 µg/g in series [3] (Intra-orbital lacrimal gland, 8 hr); “BLQ (BLQ = below the limit of quantitation (<0.457 μg equivalents ^14C-3-[5-(2-fluoro-phenyl)-[1,2,4]oxadiazol-3-yl]benzoic acid))” in series [3] (Intra-orbital lacrimal gland, 24 hr); 20.6 µg/g in series [3] (Uveal tract, 0.5 hr); 10.4 µg/g in series [3] (Uveal tract, 1 hr); 18.1 µg/g in series [3] (Uveal tract, 2 hr). Also, the Concentrations of radioactivity was 6.09 µg/g in series [3] (Uveal tract, 4 hr); 11.6 µg/g in series [3] (Uveal tract, 8 hr); “BLQ (BLQ = below the limit of quantitation (<0.457 μg equivalents ^14C-3-[5-(2-fluoro-phenyl)-[1,2,4]oxadiazol-3-yl]benzoic acid))” in series [3] (Uveal tract, 24 hr).
